# Reference: paper PMC9325861, “Mouse precision-cut liver slices as an ex vivo model to study drug-induced cholestasis” (Archives of Toxicology, 2022)
# “And” between values parts separate entries of the source, which are not always exact repeats. Equal values may be shown once.
# How the values were obtained:
# [1] = system: rat PCLS; parameters: method as in Starokozhko et al. [2017a]; details: in the presence of BAs, ref Starokozhko et al. [2017a]; cited from earlier work
# [2] = system: mouse PCLS; assay: LC–MS/MS quantification of intracellular BAs in mouse PCLS; format: cell-based; details: 48 h
# Procedure: In short, freshly prepared PCLS were transferred to 12-well plates (Greiner bio-one GmbH, Austria), one slice per well. […] The composition of the human-like BA mixture was based on serum concentrations in mice and humans, measured by […]. […] A Shimadzu Nexera X2 HPLC system with binary pumps was interfaced to a Thermo Scientific TSQ Quantum ultra-triple quadrupole mass spectrometer. The BA analysis was performed by liquid chromatography-tandem mass spectrometry (LC-MS/MS). Xcalibur software version 2.0.7 by Thermo Scientific was applied in the data processing. […] Phenomenex, Utrecht, the Netherlands) reversed-phase column was used to separate the BAs. The column and autosampler temperatures were set at 55 °C and 4 °C, respectively. The injection volume was 15 μL, and the flow was set at 0.3 mL/min. […] Intracellular BA concentrations in PCLS were measured by LC-MS/MS. Sample preparation for these measurements of intracellular BAs was performed as follows. […] Hereafter, three slices for each condition were pooled in a 1.5-mL test tube, snap-frozen in liquid nitrogen and stored at -80 °C until analysis. […] Samples were subsequently centrifuged for 15 min at 15 °C and 13,000 rpm. The supernatant was collected in a new tube, and the samples were concentrated using a Concentrator plus centrifuge (Eppendorf, Germany). […] The concentrations of CA, CDCA, DCA, LCA, UDCA, HDCA, […] and GCA were determined with MRM-based LC-MS as described above.
# [3] = system: Mrp2 (Abcc2); assay: qRT-PCR gene expression in mouse PCLS: Mrp2; format: cell-based; details: 48 h, in the presence and absence of BAs
# Procedure: (§1) In short, freshly prepared PCLS were transferred to 12-well plates (Greiner bio-one GmbH, Austria), one slice per well. Each well was filled with 1.3 mL pre-heated (37 ℃) and oxygenated (80%) Williams Medium E (1X, glutaMAX-1), which had been supplemented with 25 mM D-glucose monohydrate and 50 μg/ml Gentamicin (denoted as WME GG). […] The DMSO concentration used was below 0.5% in the incubation medium, equivalent to DMSO concentrations in solutions prepared by dilution of BA stock solutions with WME GG.
# Three PCLS incubated under a given condition were pooled in a 1.5-mL Rnase-free test tube, snap-frozen in liquid nitrogen, and stored at – 80 °C until analysis. RNA was isolated using a FavorPrep Tissue Total RNA Mini Kit (Favorgen, Vienna, Austria). Subsequently, the RNA yield was quantified using a NanoDrop One instrument (Thermo Fisher Scientific, Massachusetts, USA). Isolated RNA was reverse-transcribed to cDNA using a cDNA synthesis kit (Reverse Transcription System, Promega, Benelux B.V.). […]
# qRT-PCR was used to determine the relative mRNA expression levels for the mouse target genes: Bsep (Abcb11), Mrp2 (Abcc2), Mrp3 (Abcc3), Mrp4 (Abcc4), Ntcp (Slc10a1), Fxr (Nr1h4), Cyp7a1 (Cyp7a1), Collagen type 1a1 (Col1a1), Hsp47 (Serpinh1). […] Samples were measured in duplicates. […] Results are expressed as log2(fold change).
# [4] = system: Collagen type 1a1 (Col1a1); assay: qRT-PCR gene expression in mouse PCLS: Col1a1; format: cell-based; details: 48 h, both with and without BAs present
# Procedure: as §1
# (§2) Three PCLS incubated under a given condition were pooled in a 1.5-mL Rnase-free test tube, snap-frozen in liquid nitrogen, and stored at – 80 °C until analysis. RNA was isolated using a FavorPrep Tissue Total RNA Mini Kit (Favorgen, Vienna, Austria). Subsequently, the RNA yield was quantified using a NanoDrop One instrument (Thermo Fisher Scientific, Massachusetts, USA). Isolated RNA was reverse-transcribed to cDNA using a cDNA synthesis kit (Reverse Transcription System, Promega, Benelux B.V.). The cDNA samples were subsequently loaded in the thermal cycler with a program set to 22 °C for 10 min, 42 °C for 15 min, and 95 °C for 5 min.
# (§3) qRT-PCR was used to determine the relative mRNA expression levels for the mouse target genes: Bsep (Abcb11), Mrp2 (Abcc2), Mrp3 (Abcc3), Mrp4 (Abcc4), Ntcp (Slc10a1), Fxr (Nr1h4), Cyp7a1 (Cyp7a1), Collagen type 1a1 (Col1a1), Hsp47 (Serpinh1). Primer sequences of the genes tested are given in Supplementary Table S1. QRT-PCR was performed using, the dye, FastStart Universal SYBR Green Master Mix (Roche Diagnostics Netherlands B.V., Almere, the Netherlands) with the ViiA™ 7 Real-Time PCR System (Applied Biosystems, Bleiswijk, the Netherlands). The first cycle constituted 10 min at 95 °C, followed by 40 cycles of 15 s at 95 °C, 30 s at 60 °C and 30 s at 72 °C, followed by 1 cycle dissociation stage (15 s: 95 °C, 60 °C and 95 °C). A minimum of four mouse livers was used for each experiment, using three PCLS per condition. Samples were measured in duplicates. […] Results are expressed as log2(fold change).
# [5] = system: Ntcp (Slc10a1); assay: qRT-PCR gene expression in mouse PCLS: Ntcp; format: cell-based; details: 48 h
# Procedure: as §1, §2, §3
# [6] = with humanized BA mixture, CPZ 15 µM, CSA 1 µM, GB 25 µM
# [7] = with humanized BA mixture, CPZ 30 µM, CSA 6 µM, GB 65 µM
# [8] = without BA mixture, CPZ 15 µM, CSA 1 µM, GB 25 µM
# [9] = without BA mixture, CPZ 30 µM, CSA 6 µM, GB 65 µM
structure (smiles),measurement,setting,value
"COc1ccc(Cl)cc1C(=O)NCCc1ccc(S(=O)(=O)NC(=O)NC2CCCCC2)cc1 [GB, Glibenclamide]",Concentration reaching severe toxicity,[1],180 µM
same,Effect on total intracellular BA concentration,[2]; in the absence of the BA mixture,decrease in intracellular concentrations of BAs
same,Intracellular CA concentration,[2]; [6],103.6±10.3 pmol/mg protein
same,Intracellular CDCA concentration,[2]; [6],14.7±1.6 pmol/mg protein
same,Intracellular DCA concentration,[2]; [6],50.7±7.4 pmol/mg protein
same,Intracellular GCA concentration,[2]; [6],13.4±2.4 pmol/mg protein
same,Intracellular HDCA concentration,[2]; [6],9.4±2.7 pmol/mg protein
same,Intracellular LCA concentration,[2]; [6],0.8±0.5 pmol/mg protein
same,Intracellular TCA concentration,[2]; [6],103.8±8.6 pmol/mg protein
same,Intracellular TCDCA concentration,[2]; [6],7.7±0.5 pmol/mg protein
same,Intracellular TDCA concentration,[2]; [6],7.6±0.8 pmol/mg protein
same,Intracellular THDCA concentration,[2]; [6],8.3±1.4 pmol/mg protein
same,Intracellular UDCA concentration,[2]; [6],19.1±1.7 pmol/mg protein
same,Total intracellular concentration of 11 BAs,[2]; [6],339.2±20.7 pmol/mg protein
same,Intracellular CA concentration,[2]; [7],132.3±11.3 pmol/mg protein
same,Intracellular CDCA concentration,[2]; [7],14.8±1.3 pmol/mg protein
same,Intracellular DCA concentration,[2]; [7],121.3±8.6 pmol/mg protein
same,Intracellular GCA concentration,[2]; [7],22.4 pmol/mg protein and 22.4±6.1 pmol/mg protein
same,Intracellular HDCA concentration,[2]; [7],25.7±1.5 pmol/mg protein
same,Intracellular LCA concentration,[2]; [7],0.9±0.3 pmol/mg protein
same,Intracellular TCA concentration,[2]; [7],135.2±19.9 pmol/mg protein
same,Intracellular TCDCA concentration,[2]; [7],8.6±1.2 pmol/mg protein
same,Intracellular TDCA concentration,[2]; [7],14.6±0.9 pmol/mg protein
same,Intracellular THDCA concentration,[2]; [7],11.4±2.6 pmol/mg protein
same,Intracellular UDCA concentration,[2]; [7],24.5±3.9 pmol/mg protein
same,Effect on total intracellular BA concentration,"[2]; with humanized BA mixture, vs control",reduced or did not affect
same,Intracellular CA concentration,[2]; [8],0.5±0.0 pmol/mg protein
same,Intracellular CDCA concentration,[2]; [8],0.2±0.1 pmol/mg protein
same,Intracellular DCA concentration,[2]; [8],0.6±0.5 pmol/mg protein
same,Intracellular GCA concentration,[2]; [8],0.0±0.0 pmol/mg protein
same,Intracellular HDCA concentration,[2]; [8],0.0±0.0 pmol/mg protein
same,Intracellular LCA concentration,[2]; [8],0.1±0.1 pmol/mg protein
same,Intracellular TCA concentration,[2]; [8],0.7±0.2 pmol/mg protein
same,Intracellular TCDCA concentration,[2]; [8],2.3±0.5 pmol/mg protein
same,Intracellular TDCA concentration,[2]; [8],0.0±0.0 pmol/mg protein
same,Intracellular THDCA concentration,[2]; [8],1.8±0.3 pmol/mg protein
same,Intracellular UDCA concentration,[2]; [8],0.0±0.0 pmol/mg protein
same,Total intracellular concentration of 11 BAs,[2]; [8],6.3±0.0 pmol/mg protein
same,Intracellular CA concentration,[2]; [9],0.5±0.2 pmol/mg protein
same,Intracellular CDCA concentration,[2]; [9],0.4±0.3 pmol/mg protein
same,Intracellular DCA concentration,[2]; [9],0.1±0.1 pmol/mg protein
same,Intracellular GCA concentration,[2]; [9],0.0±0.0 pmol/mg protein
same,Intracellular HDCA concentration,[2]; [9],0.0±0.0 pmol/mg protein
same,Intracellular LCA concentration,[2]; [9],0.2±0.1 pmol/mg protein
same,Intracellular TCA concentration,[2]; [9],0.3±0.1 pmol/mg protein
same,Intracellular TCDCA concentration,[2]; [9],2.0±0.4 pmol/mg protein
same,Intracellular TDCA concentration,[2]; [9],0.0±0.0 pmol/mg protein
same,Intracellular THDCA concentration,[2]; [9],0.5±0.1 pmol/mg protein
same,Intracellular UDCA concentration,[2]; [9],0.0±0.0 pmol/mg protein
same,Total intracellular concentration of 11 BAs,[2]; [9],4.2±0.0 pmol/mg protein
same,Mrp2 gene expression,[3],increases the expression of Mrp2
same,Col1a1 gene expression,[4],reduced Col1a1 expression in a concentration-dependent manner
same,Ntcp gene expression,"[5]; BAs present, highest concentration of CPZ, lowest concentration of GB",increase the expression of Ntcp significantly
same,Ntcp gene expression,[5]; in the absence of BAs,decrease the Ntcp expression
